PubChem BioAssay (NCI)
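Following 48 hours of exposure in 96-well plates, responses at five concentrations were used to interpolate endpoints linearly. TGI is the concentration that stops growth completely.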

Columns and labels:
Test in all cases: DTP human tumour cell line panel, 48 h
LOX IMVI melanoma = tested on: LOX IMVI melanoma
RXF 393 renal = tested on: RXF 393 renal
SK-MEL-5 melanoma = tested on: SK-MEL-5 melanoma
MDA-MB-435 = tested on: MDA-MB-435
SF-295 CNS = tested on: SF-295 CNS
PC-3 prostate = tested on: PC-3 prostate
UACC-62 melanoma = tested on: UACC-62 melanoma
T-47D breast = tested on: T-47D breast
HOP-62 NSCLC = tested on: HOP-62 NSCLC
HS 578T breast = tested on: HS 578T breast
NCI-H23 lung = tested on: NCI-H23 lung
MDA-N = tested on: MDA-N
SNB-75 CNS = tested on: SNB-75 CNS
CAKI-1 renal = tested on: CAKI-1 renal
NCI-H522 lung = tested on: NCI-H522 lung
BT-549 breast = tested on: BT-549 breast
NCI-H460 lung = tested on: NCI-H460 lung
HCC-2998 colon = tested on: HCC-2998 colon
SW-620 colon = tested on: SW-620 colon
MCF7 breast = tested on: MCF7 breast
OVCAR-3 ovarian = tested on: OVCAR-3 ovarian
786-0 renal = tested on: 786-0 renal
SF-539 CNS = tested on: SF-539 CNS
SN12C renal = tested on: SN12C renal
U251 CNS = tested on: U251 CNS
KM12 colon = tested on: KM12 colon
SK-MEL-28 melanoma = tested on: SK-MEL-28 melanoma
HOP-92 NSCLC = tested on: HOP-92 NSCLC
TK-10 renal = tested on: TK-10 renal
MALME-3M melanoma = tested on: MALME-3M melanoma
SK-MEL-2 melanoma = tested on: SK-MEL-2 melanoma
IGROV1 ovarian = tested on: IGROV1 ovarian
OVCAR-4 ovarian = tested on: OVCAR-4 ovarian
OVCAR-8 ovarian = tested on: OVCAR-8 ovarian
MOLT-4 leukemia = tested on: MOLT-4 leukemia
MDA-MB-231 breast = tested on: MDA-MB-231 breast
HCT-116 colon = tested on: HCT-116 colon
OVCAR-5 ovarian = tested on: OVCAR-5 ovarian
A549 NSCLC = tested on: A549 NSCLC
NCI/ADR-RES ovarian = tested on: NCI/ADR-RES ovarian
UACC-257 melanoma = tested on: UACC-257 melanoma
EKVX NSCLC = tested on: EKVX NSCLC
CCRF-CEM leukemia = tested on: CCRF-CEM leukemia
A498 renal = tested on: A498 renal
HCT-15 colon = tested on: HCT-15 colon
HL-60(TB) leukemia = tested on: HL-60(TB) leukemia
DU-145 prostate = tested on: DU-145 prostate
M14 melanoma = tested on: M14 melanoma
K-562 leukemia = tested on: K-562 leukemia
SNB-19 CNS = tested on: SNB-19 CNS
ACHN renal = tested on: ACHN renal
HT29 colon = tested on: HT29 colon
SF-268 CNS = tested on: SF-268 CNS
SK-OV-3 ovarian = tested on: SK-OV-3 ovarian
RPMI-8226 leukemia = tested on: RPMI-8226 leukemia
COLO 205 colon = tested on: COLO 205 colon
NCI-H226 lung = tested on: NCI-H226 lung
UO-31 renal = tested on: UO-31 renal
SR leukemia = tested on: SR leukemia

## OCC(O)C(O)C(O)C(O)/C=N/Nc1nc(O)c(/C=C2\C=Nc3ccccc32)[nH]1 (configuration not stated)
LOX IMVI melanoma
  TGI: > 100 µM
RXF 393 renal
  TGI: > 100 µM
SK-MEL-5 melanoma
  TGI: > 100 µM
MDA-MB-435
  TGI: > 100 µM
SF-295 CNS
  TGI: > 100 µM
PC-3 prostate
  TGI: 97.5 µM
UACC-62 melanoma
  TGI: > 100 µM
T-47D breast
  TGI: > 100 µM
HOP-62 NSCLC
  TGI: > 100 µM
HS 578T breast
  TGI: > 100 µM
NCI-H23 lung
  TGI: > 100 µM
MDA-N
  TGI: > 100 µM
SNB-75 CNS
  TGI: > 100 µM
CAKI-1 renal
  TGI: > 100 µM
NCI-H522 lung
  TGI: > 100 µM
BT-549 breast
  TGI: > 100 µM
NCI-H460 lung
  TGI: > 100 µM
HCC-2998 colon
  TGI: > 100 µM
SW-620 colon
  TGI: > 100 µM
MCF7 breast
  TGI: > 100 µM
OVCAR-3 ovarian
  TGI: > 100 µM
786-0 renal
  TGI: > 100 µM
SF-539 CNS
  TGI: > 100 µM
SN12C renal
  TGI: > 100 µM
U251 CNS
  TGI: > 100 µM
KM12 colon
  TGI: > 100 µM
SK-MEL-28 melanoma
  TGI: > 100 µM
HOP-92 NSCLC
  TGI: > 100 µM
TK-10 renal
  TGI: > 100 µM
MALME-3M melanoma
  TGI: > 100 µM
SK-MEL-2 melanoma
  TGI: 97.7 µM
IGROV1 ovarian
  TGI: > 100 µM
OVCAR-4 ovarian
  TGI: > 100 µM
OVCAR-8 ovarian
  TGI: > 100 µM
MOLT-4 leukemia
  TGI: > 100 µM
MDA-MB-231 breast
  TGI: > 100 µM
HCT-116 colon
  TGI: > 100 µM
OVCAR-5 ovarian
  TGI: > 100 µM
A549 NSCLC
  TGI: > 100 µM
NCI/ADR-RES ovarian
  TGI: > 100 µM
UACC-257 melanoma
  TGI: > 100 µM
EKVX NSCLC
  TGI: > 100 µM
CCRF-CEM leukemia
  TGI: > 100 µM
A498 renal
  TGI: > 100 µM
HCT-15 colon
  TGI: > 100 µM
HL-60(TB) leukemia
  TGI: > 100 µM
DU-145 prostate
  TGI: > 100 µM
M14 melanoma
  TGI: > 100 µM
K-562 leukemia
  TGI: > 100 µM
SNB-19 CNS
  TGI: > 100 µM
ACHN renal
  TGI: > 100 µM
HT29 colon
  TGI: > 100 µM
SF-268 CNS
  TGI: > 100 µM
SK-OV-3 ovarian
  TGI: > 100 µM
RPMI-8226 leukemia
  TGI: > 100 µM
COLO 205 colon
  TGI: > 100 µM
NCI-H226 lung
  TGI: > 100 µM

## O=C(NN=C1CCCCC1)NN=C1CCCCC1
LOX IMVI melanoma
  TGI: > 100 µM
RXF 393 renal
  TGI: > 100 µM
SK-MEL-5 melanoma
  TGI: > 100 µM
MDA-MB-435
  TGI: > 100 µM
UO-31 renal
  TGI: > 100 µM
SF-295 CNS
  TGI: > 100 µM
PC-3 prostate
  TGI: > 100 µM
UACC-62 melanoma
  TGI: > 100 µM
T-47D breast
  TGI: > 100 µM
HOP-62 NSCLC
  TGI: > 100 µM
HS 578T breast
  TGI: > 100 µM
NCI-H23 lung
  TGI: > 100 µM
MDA-N
  TGI: > 100 µM
SNB-75 CNS
  TGI: > 100 µM
CAKI-1 renal
  TGI: > 100 µM
BT-549 breast
  TGI: > 100 µM
NCI-H460 lung
  TGI: > 100 µM
SW-620 colon
  TGI: > 100 µM
MCF7 breast
  TGI: > 100 µM
OVCAR-3 ovarian
  TGI: > 100 µM
SN12C renal
  TGI: > 100 µM
U251 CNS
  TGI: > 100 µM
KM12 colon
  TGI: > 100 µM
SK-MEL-28 melanoma
  TGI: > 100 µM
TK-10 renal
  TGI: > 100 µM
MALME-3M melanoma
  TGI: > 100 µM
IGROV1 ovarian
  TGI: > 100 µM
OVCAR-4 ovarian
  TGI: > 100 µM
OVCAR-8 ovarian
  TGI: > 100 µM
MOLT-4 leukemia
  TGI: > 100 µM
MDA-MB-231 breast
  TGI: > 100 µM
HCT-116 colon
  TGI: > 100 µM
OVCAR-5 ovarian
  TGI: > 100 µM
NCI/ADR-RES ovarian
  TGI: > 100 µM
UACC-257 melanoma
  TGI: > 100 µM
CCRF-CEM leukemia
  TGI: > 100 µM
HCT-15 colon
  TGI: > 100 µM
DU-145 prostate
  TGI: > 100 µM
M14 melanoma
  TGI: > 100 µM
K-562 leukemia
  TGI: > 100 µM
SNB-19 CNS
  TGI: > 100 µM
HT29 colon
  TGI: > 100 µM
SK-OV-3 ovarian
  TGI: > 100 µM
COLO 205 colon
  TGI: > 100 µM

## C=CCC(SC)C1=C(C)C(=O)c2ccccc21 (configuration not stated)
LOX IMVI melanoma
  TGI: > 10 µM
RXF 393 renal
  TGI: > 10 µM
SK-MEL-5 melanoma
  TGI: > 10 µM
MDA-MB-435
  TGI: > 10 µM
UO-31 renal
  TGI: > 10 µM
SF-295 CNS
  TGI: > 10 µM
PC-3 prostate
  TGI: > 10 µM
UACC-62 melanoma
  TGI: > 10 µM
T-47D breast
  TGI: > 10 µM
HOP-62 NSCLC
  TGI: > 10 µM
NCI-H23 lung
  TGI: > 10 µM
MDA-N
  TGI: > 10 µM
BT-549 breast
  TGI: > 10 µM
NCI-H460 lung
  TGI: > 10 µM
HCC-2998 colon
  TGI: > 10 µM
SW-620 colon
  TGI: > 10 µM
MCF7 breast
  TGI: > 10 µM
OVCAR-3 ovarian
  TGI: > 10 µM
786-0 renal
  TGI: > 10 µM
SF-539 CNS
  TGI: > 10 µM
SN12C renal
  TGI: > 10 µM
U251 CNS
  TGI: > 10 µM
KM12 colon
  TGI: > 10 µM
SK-MEL-28 melanoma
  TGI: > 10 µM
HOP-92 NSCLC
  TGI: > 10 µM
TK-10 renal
  TGI: > 10 µM
MALME-3M melanoma
  TGI: > 10 µM
SK-MEL-2 melanoma
  TGI: > 10 µM
IGROV1 ovarian
  TGI: > 10 µM
OVCAR-8 ovarian
  TGI: > 10 µM
MOLT-4 leukemia
  TGI: > 10 µM
MDA-MB-231 breast
  TGI: > 10 µM
OVCAR-5 ovarian
  TGI: > 10 µM
A549 NSCLC
  TGI: > 10 µM
UACC-257 melanoma
  TGI: > 10 µM
EKVX NSCLC
  TGI: > 10 µM
CCRF-CEM leukemia
  TGI: > 10 µM
A498 renal
  TGI: > 10 µM
HCT-15 colon
  TGI: > 10 µM
SR leukemia
  TGI: > 10 µM
DU-145 prostate
  TGI: > 10 µM
M14 melanoma
  TGI: > 10 µM
K-562 leukemia
  TGI: > 10 µM
SNB-19 CNS
  TGI: > 10 µM
ACHN renal
  TGI: > 10 µM
HT29 colon
  TGI: > 10 µM
SF-268 CNS
  TGI: > 10 µM
SK-OV-3 ovarian
  TGI: > 10 µM
RPMI-8226 leukemia
  TGI: > 10 µM
NCI-H226 lung
  TGI: > 10 µM

## C=CC1(c2ccc(OC)cc2)OCCCO1
LOX IMVI melanoma
  TGI: > 100 µM
RXF 393 renal
  TGI: > 100 µM
SK-MEL-5 melanoma
  TGI: > 100 µM
MDA-MB-435
  TGI: > 100 µM
UO-31 renal
  TGI: > 100 µM
SF-295 CNS
  TGI: > 100 µM
PC-3 prostate
  TGI: > 100 µM
UACC-62 melanoma
  TGI: > 100 µM
T-47D breast
  TGI: > 100 µM
HOP-62 NSCLC
  TGI: > 100 µM
HS 578T breast
  TGI: > 100 µM
NCI-H23 lung
  TGI: > 100 µM
MDA-N
  TGI: > 100 µM
SNB-75 CNS
  TGI: > 100 µM
NCI-H522 lung
  TGI: > 100 µM
NCI-H460 lung
  TGI: > 100 µM
HCC-2998 colon
  TGI: > 100 µM
SW-620 colon
  TGI: > 100 µM
MCF7 breast
  TGI: > 100 µM
OVCAR-3 ovarian
  TGI: > 100 µM
786-0 renal
  TGI: > 100 µM
SF-539 CNS
  TGI: > 100 µM
SN12C renal
  TGI: > 100 µM
U251 CNS
  TGI: > 100 µM
KM12 colon
  TGI: > 100 µM
SK-MEL-28 melanoma
  TGI: > 100 µM
HOP-92 NSCLC
  TGI: > 100 µM
TK-10 renal
  TGI: > 100 µM
MALME-3M melanoma
  TGI: > 100 µM
SK-MEL-2 melanoma
  TGI: > 100 µM
IGROV1 ovarian
  TGI: > 100 µM
OVCAR-4 ovarian
  TGI: > 100 µM
OVCAR-8 ovarian
  TGI: > 100 µM
MOLT-4 leukemia
  TGI: > 100 µM
MDA-MB-231 breast
  TGI: > 100 µM
HCT-116 colon
  TGI: > 100 µM
OVCAR-5 ovarian
  TGI: > 100 µM
A549 NSCLC
  TGI: > 100 µM
NCI/ADR-RES ovarian
  TGI: > 100 µM
UACC-257 melanoma
  TGI: > 100 µM
EKVX NSCLC
  TGI: 34.6 µM
CCRF-CEM leukemia
  TGI: > 100 µM
HCT-15 colon
  TGI: > 100 µM
SR leukemia
  TGI: > 100 µM
HL-60(TB) leukemia
  TGI: > 100 µM
DU-145 prostate
  TGI: > 100 µM
M14 melanoma
  TGI: > 100 µM
K-562 leukemia
  TGI: > 100 µM
SNB-19 CNS
  TGI: > 100 µM
ACHN renal
  TGI: > 100 µM
HT29 colon
  TGI: > 100 µM
SF-268 CNS
  TGI: > 100 µM
SK-OV-3 ovarian
  TGI: > 100 µM
RPMI-8226 leukemia
  TGI: > 100 µM
COLO 205 colon
  TGI: > 100 µM
NCI-H226 lung
  TGI: > 100 µM
